The values below come from ChEMBL document CHEMBL4308842, “Allosteric Modulators of HSP90 and HSP70: Dynamics Meets Function through Structure-Based Drug Design” (J Med Chem, 2018).

For assay [1], the target named is Chaperone protein dnaK (Escherichia coli) (UniProt C3TRK2). The experiment in a line: Inhibition of Escherichia coli DNAK ATPase activity after 3 hrs relative to control. The following applies: concentration not given here.
A further assay deals with Heat shock protein HSP90 (Homo sapiens, UniProt P07900+P08238). The assay can be described thus: Binding affinity to HSP90 (unknown origin) by SPR analysis. The assay is classed as protein assay. On the technique in general: In SPR one partner is held on a chip, and binding of the other changes the refractive index at the surface.
Assay [2] relates to Jurkat. The experiment in a line: Antiproliferative activity against human Jurkat T cells after 48 hrs. The assay is classed as functional, cell-based.
The subject of assay [3] is Jurkat. The assay can be described thus: Potency index, ratio of etoposide IC50 to compound IC50 for antiproliferative activity against human Jurkat T cells. The assay is classed as functional.
The subject of assay [4] is Jurkat. The assay can be described thus: Potency index, ratio of novobiocin IC50 to compound IC50 for antiproliferative activity against human Jurkat T cells. The assay is classed as functional.
In assay [5] the test system is Jurkat. The assay can be described thus: Potency index, ratio of 17-AAG IC50 to compound IC50 for antiproliferative activity against human Jurkat T cells. The assay is classed as functional.
In another assay the test system is SK-BR-3. The experiment in a line: Antiproliferative activity against human SKBR3 cells. Type of assay: functional, cell-based.
Another assay deals with MCF7. The experiment in a line: Antiproliferative activity against human MCF7 cells. Type of assay: functional, cell-based.

Chain of Chaperone protein dnaK (Escherichia coli) (C3TRK2 1-638): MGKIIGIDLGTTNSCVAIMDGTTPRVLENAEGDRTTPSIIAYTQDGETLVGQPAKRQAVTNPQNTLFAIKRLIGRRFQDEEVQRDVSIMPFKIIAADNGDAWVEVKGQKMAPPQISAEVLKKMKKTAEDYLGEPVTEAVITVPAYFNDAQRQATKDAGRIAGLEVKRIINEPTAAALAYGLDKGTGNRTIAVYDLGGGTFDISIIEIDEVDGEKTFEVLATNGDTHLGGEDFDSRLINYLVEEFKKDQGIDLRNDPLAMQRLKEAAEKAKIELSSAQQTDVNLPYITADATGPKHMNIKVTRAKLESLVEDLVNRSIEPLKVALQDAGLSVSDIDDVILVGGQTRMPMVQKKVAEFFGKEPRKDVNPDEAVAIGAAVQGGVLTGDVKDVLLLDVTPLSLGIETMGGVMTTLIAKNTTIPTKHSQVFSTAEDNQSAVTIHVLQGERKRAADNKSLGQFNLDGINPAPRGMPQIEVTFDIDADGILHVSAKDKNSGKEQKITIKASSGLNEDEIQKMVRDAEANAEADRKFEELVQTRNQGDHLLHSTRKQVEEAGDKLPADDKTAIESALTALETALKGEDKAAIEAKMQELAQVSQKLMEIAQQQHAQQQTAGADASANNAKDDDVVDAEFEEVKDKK

For `O=c1c(O)c(-c2cc(O)c(O)c(O)c2)oc2cc(O)cc(O)c12`, in assay [1], the inhibition – broadly, the percentage by which the read-out fell short of the control – amounted to 75%.
Consider `COc1cccc(-c2cc(C(=O)Nc3cc4cc(OC)c(OC(C)=O)c(C)c4oc3=O)ccc2OC)c1`, for which, on Heat shock protein HSP90, the Kd (as a rule, the concentration at which binding is half-saturated) lay in the range of 1 to 2 µM. In addition, the IC50 (as a rule, the point on the concentration scale where inhibition reaches its midpoint) in the assay on Jurkat [2] was determined as 0.416 µM. In addition, the “Ratio IC50” value with Jurkat [3] is reported as 3; with Jurkat [4], 600; with Jurkat [5], 10.
`O=C(O[C@@H]1Cc2c(O)cc(O)cc2O[C@@H]1c1cc(O)c(O)c(O)c1)c1cc(O)c(O)c(O)c1` [EPIGALOCATECHIN GALLATE]: the IC50 with SK-BR-3 and in the assay with MCF7 was 4 µM in each case.
Turning to `CO[C@@H]1[C@@H](OC(=O)c2ccc(C)[nH]2)[C@@H](O)[C@H](Oc2ccc3c(O)c(NC(=O)c4c[nH]c(C(=O)Nc5c(O)c6ccc(O[C@@H]7OC(C)(C)[C@H](OC)[C@@H](OC(=O)c8ccc(C)[nH]8)[C@H]7O)c(C)c6oc5=O)c4C)c(=O)oc3c2C)OC1(C)C`, the IC50 with SK-BR-3 and in the assay on MCF7 was 2 µM in each case.
